Experimental data as given in US12203909B2, “Compositions for conjugating a sulfonephthalein dye to a substrate” (priority 2018, dated 2025).
Read-outs that look alike come from different tables or passages of the source.

Legend:
[1] = UV-Vis spectrum of HPTS as a function of pH, pH response range; format: physicochemical; details: RGB detectors with maximum sensitivity at 460 nm/520 nm/630 nm
Text: An example of modification of 8-hydroxypyrene-1,3,6-trisulfonic acid as its sodium salt is shown below. The 8-hydroxypyrene-1,3,6-trisulfonic acid can also be modified as a salt of a cation other than sodium, such as potassium or ammonium. This compound is suitable as a pH sensitive probe for pH range of 7.0-8.0 for red, green and blue combination photodiode (RGB) detectors with maximum sensitivity at 460 nm/520 nm/630 nm.
The UV-Vis spectrum of HPTS as a function of pH is shown in FIG. 7, while the pH response range for this dye at 454 nm is shown in FIG. 8.

[2] = SPD^−1/SPD^−2 transition, cited from earlier work
[3] = SPD derivative UV-Vis spectral and chemical properties (Table 1); format: physicochemical; details: for λ1, nm (SPD^−1 form): pH sensitive wavelength of SPD^−1
Text: The HA and A^− concentrations are related by the Henderson-Hasselbalch equation: pH=pKa+log[A^−]/[H—A] where Ka is the acid dissociation constant, pKa is −log Ka, and [A^−] and [HA] are the concentrations of dissociated and undissociated dye acid form, respectively.
Such compounds are commonly used as pH sensitive indicators for determination of pH of aqueous solutions. […] The structure of suitable SPDs and their conjugate bases are shown generically below, and their spectral and chemical properties are reported in Table 1.
Unmodified SPDs have been used for the preparation of pH sensitive indicators adsorbed on the surface of suitable polymeric materials, such as cellulose based materials. […] In general, substitution with electron acceptor substituents (e.g., Cl, Br in the C2/C5 positions) results in a pKa shift to a lower pH range relative to PR, and substitution with electron donor substituents (e.g., C1-C3 alkyl in the C2, C4 and C5 positions) results in a pKa shift to a higher pH range. […] Examples of such SPDs include bromocresol purple and bromothymol blue.
Measurement of absorbance at specific wavelengths allows for the determination of the concentrations of the acidic and basic forms of the dye. These wavelengths are typically selected based upon the absorbance maxima for each specific dye, although other wavelengths can be employed albeit with diminished sensitivity.

[4] = pH sensitive wavelength of SPD^−2

| Compound | pKa* SPD^−1/SPD^−2 [2] | λ1, nm (SPD^−1 form) [3] [nm] | λ2, nm (SPD^−2 form) [3, 4] [nm] | also measured |
| --- | --- | --- | --- | --- |
| O=S(=O)(O)c1cc(O)c2ccc3c(S(=O)(=O)O)cc(S(=O)(=O)O)c4ccc1c2c34 [8-hydroxypyrene-1,3,6-trisulfonic acid] |  |  |  | pH range for which suitable as pH sensitive probe [1]: 7.0-8.0 |
| Cc1c(C2(c3cc(Br)c(O)c(Br)c3C)OS(=O)(=O)c3ccccc32)cc(Br)c(O)c1Br [Bromocresol Green (BrCrG), Bromocresol Green] | 4.7 | 432 | ~614 |  |
| Cc1cc(C2(c3cc(C)c(O)c(Br)c3)OS(=O)(=O)c3ccccc32)cc(Br)c1O [Bromocresol Purple (BrCrP), Bromocresol Purple] | 6.3 | 432 | 589 |  |
| O=S1(=O)OC(c2cc(Br)c(O)c(Br)c2)(c2cc(Br)c(O)c(Br)c2)c2ccccc21 [Bromophenol Blue] | 4.1 | 436 | 591 |  |
| Cc1c(C2(c3cc(C(C)C)c(O)c(Br)c3C)OS(=O)(=O)c3ccccc32)cc(C(C)C)c(O)c1Br [Bromothymol Blue] | 7.1 | 427 | 602 |  |
| O=S1(=O)OC(c2ccc(O)c(Cl)c2)(c2ccc(O)c(Cl)c2)c2ccccc21 [Chlorophenol Red (ClPR), Chlorophenol Red] | 6.7 | 436 | 575 |  |
| Cc1cc(C2(c3ccc(O)c(C)c3)OS(=O)(=O)c3ccccc32)ccc1O [Cresol Red (CR), Cresol Red] |  | 430 |  |  |
| Cc1c(C2(c3cc(C(C)C)c(O)c(CN(CC(=O)[O-])CC(=O)[O-])c3C)OS(=O)(=O)c3ccccc32)cc(C(C)C)c(O)c1CN(CC(=O)[O-])CC(=O)[O-].[Na+].[Na+].[Na+].[Na+] [Methylthymol Blue] | 6.0-13.0 | 442 | 614 |  |
| O=S1(=O)OC(c2ccc(O)cc2)(c2ccc(O)cc2)c2ccccc21 [Phenol Red (PR), Phenol Red] | 7.4 | 431 | 557 | pKa (Table 3, PR derivatives): 7.4; λ1, nm (Table 3, PR derivatives): 431 nm; λ2, nm (Table 3, PR derivatives): 557 nm; λ1^pH 6/pH 9 Abs ratio (calculated as OD 430 nm pH 6.0/OD 430 nm pH 9.0): 5.1; pKa* SPD^−1/SPD^−2 ([2]; listed as Phenol red (PR)): approximately 7.4; λ2, nm (SPD^−2 form) ([3]; pH sensitive wavelength of SPD^−2, listed as PR): approximately 557 nm |
| Cc1cc(O)c(C(C)C)cc1C1(c2cc(C(C)C)c(O)cc2C)OS(=O)(=O)c2ccccc21 [Thymol Blue] | 8.9 | 432 | 595 |  |
| Cc1cc(C2(c3cc(C)c(O)cc3C)OS(=O)(=O)c3ccccc32)c(C)cc1O [Xylenol Blue] | 8.5 | 436 | 594 |  |
| Cc1cc(C2(c3cc(C)c(O)c(CN(CC(=O)O)CC(=O)O)c3)OS(=O)(=O)c3ccccc32)cc(CN(CC(=O)O)CC(=O)O)c1O [Xylenol Orange] | 6.0-11.7 | 436 | 583 |  |
| Cc1cc(O)ccc1C1(c2ccc(O)cc2C)OS(=O)(=O)c2ccccc21 [m-Cresol Purple (mCrP), m-Cresol Purple] | 8.3 | 432 | 578 |  |
